Assay results reported in paper PMC4494927, “Discovery of a small molecule targeting SET-PP2A interaction to overcome BCR-ABLT315I mutation of chronic myeloid leukemia” (Oncotarget, 2015).

Tests used:
SET-PP2A interaction = target: T1, SET-PP2A interaction (Homo sapiens, UniProt Q01105); assay: Co-immunoprecipitation of SET and PP2Ac in K562 cells; format: cell-based; conditions: 24 h
T1 construct: SET and PP2Ac protein complexes were immunoprecipitated; endogenous in cells; host or cells: K562
T1 sequence (Q01105 whole entry): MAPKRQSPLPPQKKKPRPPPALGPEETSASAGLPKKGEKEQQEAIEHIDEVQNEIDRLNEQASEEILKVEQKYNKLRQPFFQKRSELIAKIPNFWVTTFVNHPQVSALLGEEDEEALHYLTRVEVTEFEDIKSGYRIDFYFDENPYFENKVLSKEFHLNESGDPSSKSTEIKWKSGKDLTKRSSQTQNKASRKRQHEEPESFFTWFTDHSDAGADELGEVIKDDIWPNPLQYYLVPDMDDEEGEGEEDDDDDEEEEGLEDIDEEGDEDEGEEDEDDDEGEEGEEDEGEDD
Protocol: Protein samples (40 μg) were resolved on SDS-PAGE gels, transferred onto PVDF membranes (Millipore) and incubated overnight with primary antibodies to β-tubulin, BCR-ABL, p-BCR-ABL, SET, PP2Ac and p-PP2Ac. The membranes were incubated with horseradish peroxidase (HRP)-conjugated secondary antibody for 1 h, and the bands were visualized using an ECL detection kit following the manufacturer's instructions. For immunoprecipitation, cells were lysed in 20 mM Tris-HCl (pH 7.0), 150 mM NaCl, 1 mM EDTA, 1 mM MgCl and 0.5% NP-40 supplemented with a cocktail of protease and phosphatase inhibitors (Roche). Lysates (200 μg) were incubated with primary antibodies (1 μg) against SET or PP2Ac at 4 °C for 10 h, protein A/G plus agarose beads were then added for immunoprecipitation overnight at 4 °C. After wash, the immunoprecipitated proteins were separated by SDS-PAGE and analyzed by Western blotting.

tubulin = assay: Microtubule assembly assay in K562 cells; format: cell-based, human; conditions: 24 h
Protocol: Separation of insoluble polymerized tubulin from soluble tubulin dimers and analysis of the effects of TGI1002 on tubulin polymerization were performed as described previously. In brief, K562 cells at a density of 1 × 10^6/100 mm^2 dishes were treated with indicated concentrations of TGI1002 at 24 h. Cells were washed with PBS for three times before adding polymerization lysate buffer containing 20 mM Tris-HCl (pH6.8), 1 mM MgCl2, 2 mM EGTA, […] aprotinin, […] leupeptin, 1 mM phenylmethylsulfonyl fluoride, 1 mM orthovanadate and 0.5% Nonidet. After centrifugation at 15,000 x g for 10 min at 4 °C, the pellets were resuspended in SDS-PAGE loading buffer and dissolved by heating at 95 °C for 10 min. Beta-tubulin was then Western blotted from both pellets (containing polymerized microtubules) and supernatants (containing depolymerized microtubules).

PLK2 = PLK2 (Homo sapiens, UniProt Q9NYY3); assay: In vitro kinase assay (Kinase-Glo / ADP-Glo); format: biochemical; conditions: TGI1002 1 µM; means of two independent experiments; read-out: Inhibitory effect (%)
Protocol: (§1) All kinase reactions were carried out in 384-well plates. After addition of the compounds, kinase and ATP-substrate were added to the assay plates successively, the assay plates were centrifuged at 1,000 x g for 1 min and incubated for 1 h at 30 °C. Then, Kinase-Glo Plus or ADP-Glo reagent was added to each well. In Kinase-Glo assay, after addition of the reagent for 20 min, the luminescence was measured on an EnVision Multilabel Plate Reader (Perkin-Elmer). In ADP-Glo assay, after addition of the reagent for 40 min, Kinase Detection Reagent was added and incubated for another 30 min at 27 °C, and then the luminescence was measured. Kinase inhibition rates were calculated per manufacturer's instructions.

PLK1 = PLK1 (Homo sapiens, UniProt P53350); assay: In vitro kinase assay (Kinase-Glo / ADP-Glo); format: biochemical; conditions: TGI1002 1 µM; means of two independent experiments; read-out: Inhibitory effect (%)
Sequence of PLK1 (P53350 whole entry): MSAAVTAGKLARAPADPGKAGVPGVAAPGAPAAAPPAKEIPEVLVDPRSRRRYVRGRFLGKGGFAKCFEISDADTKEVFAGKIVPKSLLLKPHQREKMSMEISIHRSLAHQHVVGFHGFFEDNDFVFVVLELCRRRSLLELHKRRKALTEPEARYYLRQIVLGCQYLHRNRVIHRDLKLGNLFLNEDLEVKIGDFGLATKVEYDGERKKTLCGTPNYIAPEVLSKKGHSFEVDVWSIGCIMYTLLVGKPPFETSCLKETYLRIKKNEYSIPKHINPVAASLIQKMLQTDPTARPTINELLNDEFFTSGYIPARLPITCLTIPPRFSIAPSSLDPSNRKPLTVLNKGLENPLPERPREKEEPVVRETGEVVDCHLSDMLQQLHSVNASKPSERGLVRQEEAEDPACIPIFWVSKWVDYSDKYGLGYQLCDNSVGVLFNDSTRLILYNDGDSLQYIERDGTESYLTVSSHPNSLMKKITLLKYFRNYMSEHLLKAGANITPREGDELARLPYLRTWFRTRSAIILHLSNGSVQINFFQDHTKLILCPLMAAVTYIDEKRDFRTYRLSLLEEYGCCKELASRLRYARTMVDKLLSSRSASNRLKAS
Protocol: as §1

AMPK (A1/B1/G1) = AMPK (A1/B1/G1) (Homo sapiens, UniProt Q13131); assay: In vitro kinase assay (Kinase-Glo / ADP-Glo); format: biochemical; conditions: TGI1002 1 µM; means of two independent experiments; read-out: Inhibitory effect (%)
Sequence of AMPK (A1/B1/G1) (Q13131 whole entry): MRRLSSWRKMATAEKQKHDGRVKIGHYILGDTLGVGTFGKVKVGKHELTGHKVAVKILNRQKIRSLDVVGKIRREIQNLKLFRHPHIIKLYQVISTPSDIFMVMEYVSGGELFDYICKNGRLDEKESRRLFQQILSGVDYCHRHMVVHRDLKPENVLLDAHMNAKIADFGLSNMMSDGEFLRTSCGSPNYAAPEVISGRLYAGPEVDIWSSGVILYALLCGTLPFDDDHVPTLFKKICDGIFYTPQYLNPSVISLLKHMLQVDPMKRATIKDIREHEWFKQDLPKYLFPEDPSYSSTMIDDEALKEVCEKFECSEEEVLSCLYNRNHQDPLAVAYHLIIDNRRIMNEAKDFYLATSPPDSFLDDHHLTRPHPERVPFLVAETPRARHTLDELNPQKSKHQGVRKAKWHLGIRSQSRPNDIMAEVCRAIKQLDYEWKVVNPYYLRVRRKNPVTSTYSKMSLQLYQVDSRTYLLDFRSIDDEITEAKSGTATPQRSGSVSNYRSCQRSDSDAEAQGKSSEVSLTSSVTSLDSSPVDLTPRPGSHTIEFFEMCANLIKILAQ
Sequence of AMPK (A1/B1/G1) (Q9Y478 whole entry partner): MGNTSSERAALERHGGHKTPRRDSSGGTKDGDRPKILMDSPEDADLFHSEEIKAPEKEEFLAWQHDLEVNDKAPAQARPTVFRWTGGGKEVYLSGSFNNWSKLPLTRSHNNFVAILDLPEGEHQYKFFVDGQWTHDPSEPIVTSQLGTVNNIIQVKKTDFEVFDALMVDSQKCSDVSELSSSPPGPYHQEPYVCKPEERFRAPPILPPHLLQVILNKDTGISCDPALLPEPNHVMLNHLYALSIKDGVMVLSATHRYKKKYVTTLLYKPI
Sequence of AMPK (A1/B1/G1) (P54619 whole entry partner): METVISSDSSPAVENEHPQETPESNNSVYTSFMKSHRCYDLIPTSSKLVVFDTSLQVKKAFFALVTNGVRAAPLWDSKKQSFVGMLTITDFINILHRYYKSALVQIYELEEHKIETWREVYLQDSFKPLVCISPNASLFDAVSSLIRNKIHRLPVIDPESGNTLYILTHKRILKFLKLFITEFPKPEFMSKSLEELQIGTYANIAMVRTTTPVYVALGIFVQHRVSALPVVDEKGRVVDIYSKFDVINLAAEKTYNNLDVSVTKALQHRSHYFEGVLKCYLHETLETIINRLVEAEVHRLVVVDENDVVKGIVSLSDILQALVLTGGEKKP
Protocol: as §1

PI3Kδ = PI3Kδ (Homo sapiens, UniProt O00329); assay: In vitro kinase assay (Kinase-Glo / ADP-Glo); format: biochemical; conditions: TGI1002 1 µM; means of two independent experiments; read-out: Inhibitory effect (%)
Protocol: as §1

JNK1 = JNK1 (Homo sapiens, UniProt P45983); assay: In vitro kinase assay (Kinase-Glo / ADP-Glo); format: biochemical; conditions: TGI1002 1 µM; means of two independent experiments; read-out: Inhibitory effect (%)
Protocol: as §1

PDGFRβ = PDGFRβ (Homo sapiens, UniProt P09619); assay: In vitro kinase assay (Kinase-Glo / ADP-Glo); format: biochemical; conditions: TGI1002 1 µM; means of two independent experiments; read-out: Inhibitory effect (%)
Protocol: as §1

PKCγ = PKCγ (Homo sapiens, UniProt P05129); assay: In vitro kinase assay (Kinase-Glo / ADP-Glo); format: biochemical; conditions: TGI1002 1 µM; means of two independent experiments; read-out: Inhibitory effect (%)
Protocol: as §1

AMPK (A2/B1/G1) = AMPK (A2/B1/G1) (Homo sapiens, UniProt P54646); assay: In vitro kinase assay (Kinase-Glo / ADP-Glo); format: biochemical; conditions: TGI1002 1 µM; means of two independent experiments; read-out: Inhibitory effect (%)
Protocol: as §1

PLK3 = PLK3 (Homo sapiens, UniProt Q9H4B4); assay: In vitro kinase assay (Kinase-Glo / ADP-Glo); format: biochemical; conditions: TGI1002 1 µM; means of two independent experiments; read-out: Inhibitory effect (%)
Sequence of PLK3 (Q9H4B4 whole entry): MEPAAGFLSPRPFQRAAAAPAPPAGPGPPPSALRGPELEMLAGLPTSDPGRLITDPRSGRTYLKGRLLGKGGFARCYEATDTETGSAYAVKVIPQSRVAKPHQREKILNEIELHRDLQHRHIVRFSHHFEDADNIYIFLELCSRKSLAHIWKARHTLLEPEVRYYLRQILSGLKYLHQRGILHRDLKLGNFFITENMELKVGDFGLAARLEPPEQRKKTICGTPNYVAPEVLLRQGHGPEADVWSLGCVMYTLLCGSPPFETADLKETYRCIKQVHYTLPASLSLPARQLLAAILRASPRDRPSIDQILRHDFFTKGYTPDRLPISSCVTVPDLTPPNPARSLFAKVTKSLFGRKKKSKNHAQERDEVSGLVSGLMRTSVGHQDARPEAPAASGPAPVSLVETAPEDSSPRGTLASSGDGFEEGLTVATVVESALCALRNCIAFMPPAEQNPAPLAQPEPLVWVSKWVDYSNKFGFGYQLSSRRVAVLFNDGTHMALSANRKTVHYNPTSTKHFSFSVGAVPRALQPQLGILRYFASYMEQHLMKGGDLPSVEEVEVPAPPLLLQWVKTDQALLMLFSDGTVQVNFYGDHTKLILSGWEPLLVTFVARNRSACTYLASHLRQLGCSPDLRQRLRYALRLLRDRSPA
Protocol: as §1

p38β = p38β (Homo sapiens, UniProt Q15759); assay: In vitro kinase assay (Kinase-Glo / ADP-Glo); format: biochemical; conditions: TGI1002 1 µM; means of two independent experiments; read-out: Inhibitory effect (%)
Protocol: as §1

FGFR1 = FGFR1 (Homo sapiens, UniProt P11362); assay: In vitro kinase assay (Kinase-Glo / ADP-Glo); format: biochemical; conditions: TGI1002 1 µM; means of two independent experiments; read-out: Inhibitory effect (%)
Sequence of FGFR1 (P11362 22-822): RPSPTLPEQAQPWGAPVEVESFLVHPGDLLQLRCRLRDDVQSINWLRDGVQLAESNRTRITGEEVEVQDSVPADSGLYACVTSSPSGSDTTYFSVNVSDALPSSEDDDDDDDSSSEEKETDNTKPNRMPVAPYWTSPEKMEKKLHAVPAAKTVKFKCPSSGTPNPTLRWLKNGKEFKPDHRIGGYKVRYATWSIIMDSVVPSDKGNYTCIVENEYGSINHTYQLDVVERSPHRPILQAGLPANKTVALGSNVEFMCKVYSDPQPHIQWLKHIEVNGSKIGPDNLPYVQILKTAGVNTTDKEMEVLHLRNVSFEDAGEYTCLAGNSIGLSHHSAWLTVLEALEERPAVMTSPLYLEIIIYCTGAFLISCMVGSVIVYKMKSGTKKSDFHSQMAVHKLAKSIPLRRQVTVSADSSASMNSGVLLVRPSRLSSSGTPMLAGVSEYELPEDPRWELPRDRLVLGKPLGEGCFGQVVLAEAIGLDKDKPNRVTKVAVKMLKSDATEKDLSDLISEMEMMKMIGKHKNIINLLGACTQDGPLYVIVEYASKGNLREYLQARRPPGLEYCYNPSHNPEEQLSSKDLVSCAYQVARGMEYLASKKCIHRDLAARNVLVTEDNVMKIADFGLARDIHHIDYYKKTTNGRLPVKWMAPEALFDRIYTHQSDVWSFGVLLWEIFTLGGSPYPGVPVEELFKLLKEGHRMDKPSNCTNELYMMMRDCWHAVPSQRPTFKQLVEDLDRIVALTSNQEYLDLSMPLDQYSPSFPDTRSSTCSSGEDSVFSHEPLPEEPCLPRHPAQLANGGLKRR
Protocol: as §1

CDK4/CyclinD1 = CDK4/CyclinD1 (Homo sapiens, UniProt P11802); assay: In vitro kinase assay (Kinase-Glo / ADP-Glo); format: biochemical; conditions: TGI1002 1 µM; means of two independent experiments; read-out: Inhibitory effect (%)
Sequence of CDK4/CyclinD1 (P11802 whole entry): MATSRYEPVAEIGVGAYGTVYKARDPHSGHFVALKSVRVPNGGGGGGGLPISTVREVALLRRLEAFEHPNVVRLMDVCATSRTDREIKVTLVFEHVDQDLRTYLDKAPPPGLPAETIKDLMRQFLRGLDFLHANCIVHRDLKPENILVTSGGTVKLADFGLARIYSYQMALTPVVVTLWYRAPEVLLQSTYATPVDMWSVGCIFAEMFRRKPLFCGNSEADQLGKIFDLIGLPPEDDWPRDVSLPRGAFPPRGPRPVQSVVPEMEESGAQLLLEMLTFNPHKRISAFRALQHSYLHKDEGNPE
Sequence of CDK4/CyclinD1 (P24385 whole entry partner): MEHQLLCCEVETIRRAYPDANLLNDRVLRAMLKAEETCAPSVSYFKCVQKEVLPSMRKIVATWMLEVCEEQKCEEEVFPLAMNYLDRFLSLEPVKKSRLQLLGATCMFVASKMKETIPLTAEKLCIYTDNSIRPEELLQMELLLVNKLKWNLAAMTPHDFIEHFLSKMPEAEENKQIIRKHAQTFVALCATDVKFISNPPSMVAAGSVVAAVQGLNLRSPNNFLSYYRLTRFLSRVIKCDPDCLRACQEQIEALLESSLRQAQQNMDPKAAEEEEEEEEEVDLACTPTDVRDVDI
Protocol: as §1

CDK2/CyclinA2 = CDK2/CyclinA2 (Homo sapiens, UniProt P24941); assay: In vitro kinase assay (Kinase-Glo / ADP-Glo); format: biochemical; conditions: TGI1002 1 µM; means of two independent experiments; read-out: Inhibitory effect (%)
Protocol: as §1

KDR = KDR (Homo sapiens, UniProt P35968); assay: In vitro kinase assay (Kinase-Glo / ADP-Glo); format: biochemical; conditions: TGI1002 1 µM; means of two independent experiments; read-out: Inhibitory effect (%)
Protocol: as §1

K562 cells = assay: Cytotoxicity assay (CellTiter-Glo); format: cell-based, human
Protocol: Twenty types of tumor cell lines were seeded at 4000 cells per well in 96-well plates. […] Cell viability was measured with the CellTiter-Glo Luminescent Cell Viability Assay (Promega) according to the manufacturer's instructions. Luminescence was measured using an EnVision Multilabel Plate Reader (Perkin-Elmer). The cytotoxicity of TGI1002 was expressed as the percentage of luminescence relative to that of untreated cells.

[1] = test system: K562 cells expressing SET shRNA; assay: Cytotoxicity in K562 cells with stable SET knock-down (shRNA); format: cell-based, human; conditions: SET knock-down vs control K562 cells
Protocol: Twenty types of tumor cell lines were seeded at 4000 cells per well in 96-well plates. TGI1002 dissolved in phosphate saline was added to cells at final concentrations ranging from 0.5 nM to 100 μM for 120 h. Cell viability was measured with the CellTiter-Glo Luminescent Cell Viability Assay (Promega) according to the manufacturer's instructions. Luminescence was measured using an EnVision Multilabel Plate Reader (Perkin-Elmer). The cytotoxicity of TGI1002 was expressed as the percentage of luminescence relative to that of untreated cells.
Lentivirus-encoded shRNA against human SET (GenBank No.: NM_003011) and a noncoding gene (negative control) were prepared by Genechem and titered to 2 × 10^8 (TU/mL). K562 cells (1 × 10^4 cells/well) were seeded in 96-well plates overnight before transfection. The virus (10 μL) was mixed with 90 μL complete medium containing polybrene (5 μg/mL) and added to cells and incubated for 12 h at 37 °C. Then, the cells were incubated in fresh complete RPMI 1640 medium for 72 h, followed by incubation in complete medium containing puromycin (5 μg/mL). After 2 weeks of selection, individual clones were isolated, passaged and harvested for subsequent studies. Identification of stable SET-knockdown K562 cell line was performed by Western blotting. Effects of TGI1002 on cell viability of SET-knockdown K562 cells were studied as described above.

## Cc1ccc(NC(=O)c2cccc(CN3CCN(C)CC3)c2)cc1Oc1nccc(-c2cccnc2)n1.Cl [TGI1002, N-(4-methyl-3-((4-(pyridin-3-yl)-pyrimidin-2-yl)oxy)phenyl)-3-((4-methylpiperazin-1-yl)methyl)benzamide hydrochloride]
SET-PP2A interaction
  association between SET and PP2A: trend of decrease
tubulin
  amounts of tubulin in depolymerized fraction S and polymerized fraction P: not affected
PLK2
  inhibition at 1 µM: 3.52%
PLK1
  inhibition at 1 µM: 1.63%
AMPK (A1/B1/G1)
  inhibition at 1 µM: 0.19%
PI3Kδ
  inhibition at 1 µM: 0.71%
JNK1
  inhibition at 1 µM: 0.2%
PDGFRβ
  inhibition at 1 µM: 17.2%
PKCγ
  inhibition at 1 µM: 0.79%
AMPK (A2/B1/G1)
  inhibition at 1 µM: 2.57%
PLK3
  inhibition at 1 µM: 4.71%
p38β
  inhibition at 1 µM: 0.2%
FGFR1
  inhibition at 1 µM: 9.71%
CDK4/CyclinD1
  inhibition at 1 µM: 7.54%
CDK2/CyclinA2
  inhibition at 1 µM: 1.54%
KDR
  inhibition at 1 µM: 0.64%
K562 cells; Homo sapiens, 72 h, cell viability
  IC50: 11 ± 1.98 µM
K562 cells; IC50 at 72 h
  fold less potent than imatinib: approximately 35 fold
[1]
  sensitivity of K562 cells to treatment after SET-specific shRNA: decreased the sensitivity
